Assay results: US9220264B2, “Multimeric forms of antimicrobial peptides” (Singapore Health Services Pte Ltd., priority 2008, dated 2015)
Values after ≈ are worked out from the molar mass of the structure shown. Bridge positions count the residues as written; N and C are the ends. Peptide text beside a SMILES is read from it. I, II: the chains in the order shown.

Assays:
[1] = test system: Clinical Escherichia coli DU46381R Source: Urine; format: cell-based
Procedure: (§1) MICs was determined by broth macrodilution method modified from that described by the National Committee for Clinical Laboratory Standards (NCCL). The Mueller Hinton Broth (MHB) at ⅙ strength and without addition of Ca^2+ and Mg^2+ was used for dilution. Serial twofold dilutions of V2 dimer solution was prepared in MHB (⅙ strength) in test tubes. 1 ml of inoculum of test organisms in MHB (⅙ strength) was added to 1 ml of each dilution of V2 dimer to yield as final concentration of 10^4 to 10^5 colony forming units/ml in each test tube. The tubes were incubated at 35° C. for 16 to 20 hours. A positive control containing only the broth and organism, and a negative control tube containing only the broth were also incubated in parallel to the test samples. The above was repeated for each different test organism in separate experiments. The MIC of V2 dimer peptide for each clinical isolate or reference organism was read as the lowest concentration of peptide that inhibited visible growth of the test organism.
(§2) The MIC was also determined for other peptides and compared to gentamicin.

[2] = test system: Clinical Pseudomonas aeruginosa PAE 239 DM5790/07 Source: Wound; format: cell-based; settings: Clinical PAE 239 DM5790/07 Source: Wound
Procedure: as §1, §2

[3] = test system: Clinical Pseudomonas aeruginosa PAE 240 DU14476/07 Source: Urine; format: cell-based; settings: Clinical PAE 240 DU14476/07 Source: Urine
Procedure: as §1, §2

[4] = test system: Clinical Staphylococcus aureus DM4001 Source: Eye; format: cell-based
Procedure: as §1, §2

[5] = test system: Clinical Pseudomonas aeruginosa DM 023104 Source: Eye; format: cell-based; settings: Clinical DM 023104 Source: Eye
Procedure: as §1, §2

[6] = test system: Clinical Pseudomonas aeruginosa 07DM 023257 Source: Eye; format: cell-based; settings: Clinical 07DM 023257 Source: Eye
Procedure: as §1, §2

[7] = test system: Escherichia coli ATCC25922; format: cell-based
Procedure: as §1, §2

[8] = test system: Clinical Escherichia coli DB16027 Source: Blood; format: cell-based; settings: Clinical DB16027 Source: Blood
Procedure: as §1, §2

[9] = test system: Clinical Pseudomonas aeruginosa DM 023155 Source: Eye; format: cell-based; settings: Clinical DM 023155 Source: Eye
Procedure: as §1, §2

[10] = test system: Fusarium solani ATCC 36031; format: cell-based
Procedure: as §1, §2

[11] = test system: Clinical Pseudomonas aeruginosa PAE 249 DM15013 Source: Wound; format: cell-based; settings: Clinical PAE 249 DM15013 Source: Wound
Procedure: as §1, §2

[12] = test system: Clinical Pseudomonas aeruginosa PAE 230 DR4877/07 Source: Sputum; format: cell-based; settings: Clinical PAE 230 DR4877/07 Source: Sputum
Procedure: as §1, §2

[13] = test system: Clinical Pseudomonas aeruginosa 07DM023376 Source: Eye; format: cell-based; settings: Clinical 07DM023376 Source: Eye
Procedure: as §1, §2

[14] = test system: Candida albicans ATCC10231; format: cell-based
Procedure: as §1, §2

[15] = test system: Clinical Cadida albicans DF2672R Source: Urine; format: cell-based, Candida albicans
Procedure: as §1, §2

Compound | MIC [1] [µg/mL] | MIC [2] [µg/mL] | MIC [3] [µg/mL] | MIC [4] [µg/mL] | MIC [5] [µg/mL] | MIC [6] [µg/mL] | MIC [7] [µg/mL] | MIC [8] [µg/mL] | MIC [9] [µg/mL] | MIC [10] [µg/mL] | MIC [11] [µg/mL] | MIC [12] [µg/mL] | MIC [13] [µg/mL] | MIC [14] [µg/mL] | MIC [15] [µg/mL]
N=C(N)NCCC[C@H](NC(=O)[C@H](CCCNC(=N)N)NC(=O)[C@H](Cc1ccc(O)cc1)NC(=O)[C@H](Cc1ccc(O)cc1)NC(=O)[C@H](CCCCN)NC(=O)[C@H](CCCNC(=N)N)NC(=O)CNC(=O)[C@@H](N)CCCNC(=N)N)C(=O)O [Y2-8AA, RGRKYYRR] (H-RGRKYYRR-OH; N-terminus and C-terminus assumed) | 25 (≈ 21.7 µM) | >50 | 6.25 (≈ 5.41 µM) | >50 | >50 | >50 | 25 (≈ 21.7 µM) | 25 (≈ 21.7 µM) | >50 | 50 (≈ 43.3 µM) | >50 | >50 | 50 (≈ 43.3 µM) | 25 (≈ 21.7 µM) | 50 (≈ 43.3 µM)
N=C(N)NCCC[C@H](NC(=O)CNC(=O)[C@@H](N)CCCNC(=N)N)C(=O)N[C@@H](CCCCN)C(=O)N[C@@H](Cc1ccc(O)cc1)C(=O)N[C@@H](Cc1ccc(O)cc1)C(=O)N[C@@H](CCCNC(=N)N)C(=O)N[C@@H](CCCNC(=N)N)C(=O)N[C@@H](Cc1ccc(O)cc1)C(=O)N[C@@H](Cc1ccc(O)cc1)C(=O)O [Y4 monomer, RGRKYYRRYY] (H-RGRKYYRRYY-OH; N-terminus and C-terminus assumed) | 12.5 (≈ 8.44 µM) | 50 (≈ 33.8 µM) | 25 (≈ 16.9 µM) | 12.5 (≈ 8.44 µM) | 50 (≈ 33.8 µM) | >50 | 12.5 (≈ 8.44 µM) | 6.25 (≈ 4.22 µM) | 25 (≈ 16.9 µM) | 12.5 (≈ 8.44 µM) | 50 (≈ 33.8 µM) | >50 | >50 | 12.5 (≈ 8.44 µM) | 25 (≈ 16.9 µM)
CC(C)[C@H](NC(=O)[C@H](CCCCN)NC(=O)[C@H](CCCNC(=N)N)NC(=O)CNC(=O)[C@@H](N)CCCNC(=N)N)C(=O)N[C@H](C(=O)N[C@@H](CCCNC(=N)N)C(=O)N[C@@H](CCCNC(=N)N)C(=O)O)C(C)C [V2-8AA, RGRKVVRR] (H-RGRKVVRR-OH; N-terminus and C-terminus assumed) | 50 (≈ 48.7 µM) | >50 | 25 (≈ 24.4 µM) | >50 | >50 | >50 | >50 | >50 | >50 | >100 | >50 | >50 | >50 | >50 | >50
N=C(N)NCCC[C@H](NC(=O)CNC(=O)[C@@H](N)CCCNC(=N)N)C(=O)N[C@@H](CCCCN)C(=O)N[C@@H](Cc1c[nH]c2ccccc12)C(=O)N[C@@H](Cc1c[nH]c2ccccc12)C(=O)N[C@@H](CCCNC(=N)N)C(=O)N[C@@H](CCCNC(=N)N)C(=O)NCCCC[C@H](NC(=O)[C@H](CCCNC(=N)N)NC(=O)[C@H](CCCNC(=N)N)NC(=O)[C@H](Cc1c[nH]c2ccccc12)NC(=O)[C@H](Cc1c[nH]c2ccccc12)NC(=O)[C@H](CCCCN)NC(=O)[C@H](CCCNC(=N)N)NC(=O)CNC(=O)[C@@H](N)CCCNC(=N)N)C(=O)N[C@@H](CCCCN)C(=O)O [W2-dimer] (I: H-RGRKWWRRKK-OH / II: H-RGRKWWRR; amide I:9-II:C; N-terminus assumed) | 6.25 (≈ 2.37 µM) | 12.5 (≈ 4.74 µM) | 12.5 (≈ 4.74 µM) | 12.5 (≈ 4.74 µM) | 12.5 (≈ 4.74 µM) | 12.5 (≈ 4.74 µM) | 25 (≈ 9.47 µM) | 12.5 (≈ 4.74 µM) | 12.5 (≈ 4.74 µM) | 12.5 (≈ 4.74 µM) | 6.25 (≈ 2.37 µM) | 12.5 (≈ 4.74 µM) | 25 (≈ 9.47 µM) | 12.5 (≈ 4.74 µM) | 12.5 (≈ 4.74 µM)
N=C(N)NCCC[C@H](NC(=O)CNC(=O)[C@@H](N)CCCNC(=N)N)C(=O)N[C@@H](CCCCN)C(=O)N[C@@H](Cc1ccc(O)cc1)C(=O)N[C@@H](Cc1ccc(O)cc1)C(=O)N[C@@H](CCCNC(=N)N)C(=O)N[C@@H](CCCNC(=N)N)C(=O)NCCCC[C@H](NC(=O)[C@H](CCCNC(=N)N)NC(=O)[C@H](CCCNC(=N)N)NC(=O)[C@H](Cc1ccc(O)cc1)NC(=O)[C@H](Cc1ccc(O)cc1)NC(=O)[C@H](CCCCN)NC(=O)[C@H](CCCNC(=N)N)NC(=O)CNC(=O)[C@@H](N)CCCNC(=N)N)C(=O)N[C@@H](CCCCN)C(=O)O [Y2-dimer] (I: H-RGRKYYRRKK-OH / II: H-RGRKYYRR; amide I:9-II:C; N-terminus assumed) | 12.5 (≈ 4.91 µM) | 12.5 (≈ 4.91 µM) | 6.25 (≈ 2.45 µM) | 12.5 (≈ 4.91 µM) | 12.5 (≈ 4.91 µM) | 12.5 (≈ 4.91 µM) | 12.5 (≈ 4.91 µM) | 6.25 (≈ 2.45 µM) | 25 (≈ 9.82 µM) | 12.5 (≈ 4.91 µM) | 12.5 (≈ 4.91 µM) | 12.5 (≈ 4.91 µM) | 25 (≈ 9.82 µM) | 25 (≈ 9.82 µM) | 12.5 (≈ 4.91 µM)
CC(C)[C@H](NC(=O)[C@H](CCCCN)NC(=O)[C@H](CCCNC(=N)N)NC(=O)CNC(=O)[C@@H](N)CCCNC(=N)N)C(=O)N[C@H](C(=O)N[C@@H](CCCNC(=N)N)C(=O)N[C@@H](CCCNC(=N)N)C(=O)NCCCC[C@H](NC(=O)[C@H](CCCNC(=N)N)NC(=O)[C@H](CCCNC(=N)N)NC(=O)[C@@H](NC(=O)[C@@H](NC(=O)[C@H](CCCCN)NC(=O)[C@H](CCCNC(=N)N)NC(=O)CNC(=O)[C@@H](N)CCCNC(=N)N)C(C)C)C(C)C)C(=O)NCCCC[C@H](NC(=O)[C@H](CCCCNC(=O)[C@H](CCCNC(=N)N)NC(=O)[C@H](CCCNC(=N)N)NC(=O)[C@@H](NC(=O)[C@@H](NC(=O)[C@H](CCCCN)NC(=O)[C@H](CCCNC(=N)N)NC(=O)CNC(=O)[C@@H](N)CCCNC(=N)N)C(C)C)C(C)C)NC(=O)[C@H](CCCNC(=N)N)NC(=O)[C@H](CCCNC(=N)N)NC(=O)[C@@H](NC(=O)[C@@H](NC(=O)[C@H](CCCCN)NC(=O)[C@H](CCCNC(=N)N)NC(=O)CNC(=O)[C@@H](N)CCCNC(=N)N)C(C)C)C(C)C)C(=O)N[C@@H](CCCCN)C(=O)O)C(C)C [V2-tetramer] (I: H-RGRKVVRRKKK-OH / II: H-RGRKVVRRK / III: H-RGRKVVRR / IV: H-RGRKVVRR; amide I:9-IV:C, I:10-II:C, II:9-III:C; N-terminus assumed) | 6.25 (≈ 1.37 µM) | 12.5 (≈ 2.74 µM) | 6.25 (≈ 1.37 µM) | 12.5 (≈ 2.74 µM) | 6.25 (≈ 1.37 µM) | 12.5 (≈ 2.74 µM) | 12.5 (≈ 2.74 µM) | 6.25 (≈ 1.37 µM) | 6.25 (≈ 1.37 µM) | 3.125 (≈ 0.685 µM) | 6.25 (≈ 1.37 µM) | 12.5 (≈ 2.74 µM) | 6.25 (≈ 1.37 µM) | 12.5 (≈ 2.74 µM) | 12.5 (≈ 2.74 µM)
CC(C)[C@H](NC(=O)[C@@H](NC(=O)[C@H](CCCNC(=N)N)NC(=O)[C@H](CCCNC(=N)N)NC(=O)[C@@H](NC(=O)[C@@H](NC(=O)[C@H](CCCCN)NC(=O)[C@H](CCCNC(=N)N)NC(=O)CNC(=O)[C@@H](N)CCCNC(=N)N)C(C)C)C(C)C)C(C)C)C(=O)O [V4 monomer, RGRKVVRRVV] (H-RGRKVVRRVV-OH; N-terminus and C-terminus assumed) | >50 | >50 | >50 | >50 | >50 | >50 | >50 | >50 | >50 | >100 | >50 | >50 | >50 | 25 (≈ 20.4 µM) | >50
